Test results taken from patent US20250179059A1 (The Regents of the University of California, priority 2021, published 2025).
Read-outs that look alike come from different tables or passages of the source.

Key:
[1] = test system: human SKM-1 acute myeloid leukemia cells; experiment: SKM-1 antiproliferation cell-based assay (ATPlite); details: Homo sapiens
Method in brief: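 Log-phase cells in RPMI 1640/15% FBS were seeded at 34722 cells/mL and exposed for 4 days to nine-concentration DMSO serial dilutions in triplicate. Viability was read as ATP luminescence (ATPlite 1step), and IC50 values came from variable-slope non-linear regression.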

[2] = biological target: T1, human BRD4 bromodomain II (Homo sapiens, UniProt O60885); experiment: Bromodomain binding assay (AlphaScreen), BRD4 BDII
T1 construct: human BRD4 bromodomain II [based on Genbank NM_058243, residues 349-460]; host or cells: E. coli
Method in brief: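 Inhibition of acetyl-H4 peptide binding to human BRD4 bromodomains is measured by bead-based proximity (AlphaScreen) in pH 7.5 HEPES buffer containing 0.05% CHAPS and 0.1% BSA. Ten compound concentrations in 3-fold steps give competitive binding IC50s.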

[3] = SKM-1, 96 h, SKM-1 antiproliferation assay, 4 days, Table C2
[4] = AlphaScreen assay, Table C2, read-out: BRD4 BDII IC50
[5] = SKM-1, SKM-1 antiproliferation assay
[6] = BRD4 BDII AlphaScreen assay, read-out: BRD4 BD2 IC50

Compound	GI50 [1, 3] [nM]	IC50 [2, 4] [nM]	GI50 [1, 5] [nM]	IC50 [2, 6] [nM]
CN1C2CCC1CN(c1cc(-c3cc(F)cc(-c4ccc(-n5ccn(C)c5=O)c(Cl)c4)c3O)ccn1)C2 [Example 513, 1-(3-chloro-5′-fluoro-2′-hydroxy-3′-(2-(8-methyl-3,8-diazabicyclo[3.2.1]octan-3-yl)pyridin-4-yl)-[1,1′-biphenyl]-4-yl)-3-methyl-1H-imidazol-2(3H)-one]	0.3 to 30	1 to 10	–	–
O=C1CCCCN1c1ccc(-c2cccc(-c3ccnc(N4CCNCC4)c3)c2O)cc1Cl [Example 282, 1-(3-chloro-2′-hydroxy-3′-(2-(piperazin-1-yl)pyridin-4-yl)-[1,1′-biphenyl]-4-yl)piperidin-2-one]	300 to 3000	10 to 100	–	–
O=C1CCCCN1c1ccc(-c2cc(F)cc(-c3ccnc(N4CCNCC4)c3)c2O)cc1Cl [Example 281, 1-(3-chloro-5′-fluoro-2′-hydroxy-3′-(2-(piperazin-1-yl)pyridin-4-yl)-[1,1′-biphenyl]-4-yl)piperidin-2-one]	300 to 3000	10 to 100	–	–
CC(=O)Nc1ccc(-c2cccc(-c3cc(C(N)=O)nc(N4CCNCC4)c3)c2O)cc1F [Example 273, 4-(4′-acetamido-3′-fluoro-2-hydroxy-[1,1′-biphenyl]-3-yl)-6-(piperazin-1-yl)picolinamide]	300 to 3000	10 to 100	–	–
O=C1NCCN1c1ccc(-c2cccc(-c3ccnc(N4CCNCC4)c3)c2O)cc1F [Example 231, 1-(3-fluoro-2′-hydroxy-3′-(2-(piperazin-1-yl)pyridin-4-yl)-[1,1′-biphenyl]-4-yl)imidazolidin-2-one]	300 to 3000	1 to 10	–	–
Cn1cc(-c2cc(F)cc(-c3ccc(-n4ccn(C)c4=O)c(Cl)c3)c2O)cc(N2CCC(N)CC2)c1=O [Example 427, 3-(4-aminopiperidin-1-yl)-5-(3′-chloro-5-fluoro-2-hydroxy-4′-(3-methyl-2-oxo-2,3-dihydro-1H-imidazol-1-yl)-[1,1′-biphenyl]-3-yl)-1-methylpyridin-2(1H)-one]	300 to 3000	1 to 10	–	–
COc1ncc(-c2cc(F)cc(-c3ccc(-n4ccn(C)c4=O)c(Cl)c3)c2O)cc1N1CCN(C2CCC2)CC1 [Example 880]	–	–	0.3 to 30	0.01 to 1
CCc1cc(-c2cccc(-c3ccc(N4CCN(C)C4=O)c(Cl)c3)c2O)cc(N2CCNCC2)n1 [Example 374, 1-(3-chloro-3′-(2-ethyl-6-(piperazin-1-yl)pyridin-4-yl)-2′-hydroxy-[1,1′-biphenyl]-4-yl)-3-methylimidazolidin-2-one]	300 to 3000	1 to 10	–	–
CN1CCN(c2ccc(-c3cccc(-c4ccc(CN)c(N5CCNCC5)c4)c3O)cc2Cl)C1=O [Example 319, 1-(4″-(aminomethyl)-3-chloro-2′-hydroxy-3″-(piperazin-1-yl)-[1,1′:3′,1″-terphenyl]-4-yl)-3-methylimidazolidin-2-one]	300 to 3000	1 to 10	–	–
Cn1ccn(-c2ccc(-c3cc(F)cc(-c4ccnc(N5CCNC(C(F)(F)F)C5)c4)c3O)cc2Cl)c1=O (stereo not drawn) [Example 454, 1-(3-chloro-5′-fluoro-2′-hydroxy-3′-(2-(3-(trifluoromethyl)piperazin-1-yl)pyridin-4-yl)-[1,1′-biphenyl]-4-yl)-3-methyl-1H-imidazol-2(3H)-one]	300 to 3000	1 to 10	–	–
CN1CCN(c2ccc(-c3cc(F)cc(-c4ccnc(N5CCNC(C(F)(F)F)C5)c4)c3O)cc2Cl)C1=O (stereo not drawn) [Example 444, 1-(3-chloro-5′-fluoro-2′-hydroxy-3′-(2-(3-(trifluoromethyl)piperazin-1-yl)pyridin-4-yl)-[1,1′-biphenyl]-4-yl)-3-methylimidazolidin-2-one]	300 to 3000	10 to 100	–	–
COc1ncc(-c2cc(F)cc(-c3ccc(-n4ccn(C)c4=O)c(Cl)c3)c2O)cc1N1CC(C)(C)[C@](C)(O)C1 [Example 871]	–	–	30 to 300	1 to 10
Cc1cc(-c2ccc(-n3ccn(C)c3=O)c(C)c2)c(O)c(-c2cnc(C)c(N3CCN(C(C)(C)C)CC3)c2)n1 [Example 1019, 1-(4-(5′-(4-(tert-Butyl)piperazin-1-yl)-3-hydroxy-6,6′-dimethyl-[2,3′-bipyridin]-4-yl)-2-methylphenyl)-3-methyl-1,3-dihydro-2H-imidazol-2-one]	–	–	0.3 to 30	1 to 10
Cn1ccn(-c2ccc(-c3cc(=O)[nH]c(-c4cccc(N5CCN(C(C)(C)C)CC5)c4)c3O)cc2Cl)c1=O [Example 1040, 6-(3-(4-(tert-Butyl)piperazin-1-yl)phenyl)-4-(3-chloro-4-(3-methyl-2-oxo-2,3-dihydro-1H-imidazol-1-yl)phenyl)-5-hydroxypyridin-2(1H)-one]	–	–	300 to 3000	10 to 100
Cn1ccn(-c2ccc(-c3cc(F)cc(-c4ccnc(N5CC[C@H](O)C5)c4)c3O)cc2Cl)c1=O [Example 626, (S)-1-(3-chloro-5′-fluoro-2′-hydroxy-3′-(2-(3-hydroxypyrrolidin-1-yl)pyridin-4-yl)-[1,1′-biphenyl]-4-yl)-3-methyl-1H-imidazol-2(3H)-one]	30 to 300	0.01 to 1	–	–

Continued, values first:

GI50 [1, 3] [nM]	IC50 [2, 4] [nM]	GI50 [1, 5] [nM]	IC50 [2, 6] [nM]	Compound
30 to 300	1 to 10	–	–	CN1CCN(c2ccc(-c3cc(Cl)cc(-c4ccnc(N5CCNCC5)c4)c3O)cc2Cl)C1=O [Example 295, 1-(3,5′-dichloro-2′-hydroxy-3′-(2-(piperazin-1-yl)pyridin-4-yl)-[1,1′-biphenyl]-4-yl)-3-methylimidazolidin-2-one]
0.3 to 30	0.01 to 1	–	–	CC(C)N1CCC2CN(c3cc(-c4cc(F)cc(-c5ccc(-n6ccn(C)c6=O)c(Cl)c5)c4O)ccn3)CC21 (stereo not drawn) [Example 727, 1-(3-chloro-5′-fluoro-2′-hydroxy-3′-(2-(1-isopropylhexahydropyrrolo[3,4-b]pyrrol-5(1H)-yl)pyridin-4-yl)-[1,1′-biphenyl]-4-yl)-3-methyl-1H-imidazol-2(3H)-one]
0.3 to 30	0.01 to 1	–	–	Cn1ccn(-c2ccc(-c3cc(F)cc(-c4ccnc(N5CC(C)(C)C(C)(O)C5)c4)c3O)cc2Cl)c1=O (stereo not drawn) [Example 783, 1-(3-chloro-5′-fluoro-2′-hydroxy-3′-(2-(3-hydroxy-3,4,4-trimethylpyrrolidin-1-yl)pyridin-4-yl)-[1,1′-biphenyl]-4-yl)-3-methyl-1H-imidazol-2(3H)-one]
30 to 300	1 to 10	–	–	CC(=O)Nc1ccc(-c2cccc(-c3cccc(N4CC5CNC(C5)C4)c3)c2O)cc1F (stereo not drawn) [Example 206, N-(3″-(3,6-diazabicyclo[3.2.1]octan-3-yl)-3-fluoro-2′-hydroxy-[1,1′:3′,1″-terphenyl]-4-yl)acetamide]
0.3 to 30	1 to 10	–	–	Cn1ccn(-c2ccc(-c3cc(F)cc(-c4cncc(N5CC[C@@](C)(O)C5)c4)c3O)cc2Cl)c1=O [Example 728, (R)-1-(3-chloro-5′-fluoro-2′-hydroxy-3′-(5-(3-hydroxy-3-methylpyrrolidin-1-yl)pyridin-3-yl)-[1,1′-biphenyl]-4-yl)-3-methyl-1H-imidazol-2(3H)-one]
0.3 to 30	0.01 to 1	–	–	Cc1cc(-c2ccc(-n3ccn(C)c3=O)c(Cl)c2)c(O)c(-c2cc(N3CC[C@H](N)C3)c3nccnc3c2)c1 [Example 575]
30 to 300	1 to 10	–	–	CN1CCN(c2ccc(-c3cccc(-c4cc(C#N)cc(N5CCNCC5)c4)c3O)cc2Cl)C1=O [Example 331, 3″-chloro-2′-hydroxy-4″-(3-methyl-2-oxoimidazolidin-1-yl)-5-(piperazin-1-yl)-[1,1′:3′,1″-terphenyl]-3-carbonitrile]
0.3 to 30	1 to 10	–	–	C[C@@H]1CN(c2cncc(-c3cc(Cl)cc(-c4ccc(-n5ccn(C)c5=O)c(Cl)c4)c3O)c2)CCN1 [Example 529, (R)-1-(3,5′-dichloro-2′-hydroxy-3′-(5-(3-methylpiperazin-1-yl)pyridin-3-yl)-[1,1′-biphenyl]-4-yl)-3-methyl-1H-imidazol-2(3H)-one]
30 to 300	1 to 10	–	–	CC(=O)NCCOc1ncc(-c2cc(F)cc(-c3ccc(N4CCN(C)C4=O)c(Cl)c3)c2O)cc1N1CCNCC1 [Example 396, N-(2-((5-(3′-chloro-5-fluoro-2-hydroxy-4′-(3-methyl-2-oxoimidazolidin-1-yl)-[1,1′-biphenyl]-3-yl)-3-(piperazin-1-yl)pyridin-2-yl)oxy)ethyl)acetamide]
30 to 300	0.01 to 1	–	–	Cn1ccn(-c2ccc(-c3cc(F)cc(-c4ccnc(N5CCNC(c6ccccc6)C5)c4)c3O)cc2Cl)c1=O (stereo not drawn) [Example 631, 1-(3-chloro-5′-fluoro-2′-hydroxy-3′-(2-(3-phenylpiperazin-1-yl)pyridin-4-yl)-[1,1′-biphenyl]-4-yl)-3-methyl-1H-imidazol-2(3H)-one]
30 to 300	1 to 10	–	–	Cn1ccn(-c2ccc(-c3cc(F)cc(-c4ccnc(N5CCS(=O)(=O)CC5)c4)c3O)cc2Cl)c1=O [Example 707, 1-(3-chloro-3′-(2-(1,1-dioxidothiomorpholino)pyridin-4-yl)-5′-fluoro-2′-hydroxy-[1,1′-biphenyl]-4-yl)-3-methyl-1H-imidazol-2(3H)-one]
30 to 300	1 to 10	–	–	Cn1ccn(-c2ccc(-c3cc(F)cc(-c4ccnc(N5C[C@@H](O)[C@H](F)C5)c4)c3O)cc2Cl)c1=O [Example 781, 1-(3-chloro-5′-fluoro-3′-(2-((3R,4R)-3-fluoro-4-hydroxypyrrolidin-1-yl)pyridin-4-yl)-2′-hydroxy-[1,1′-biphenyl]-4-yl)-3-methyl-1H-imidazol-2(3H)-one]
